In series [1] the test system is P388. The experiment in a line: Cytotoxicity against mouse P388 cells up to 100 uM after 4 days by MTT assay. The format is functional, cell-based. A general note: Formazan colour is commonly taken as a measure of viable cells.
The nature of series [2]: Metal chelating activity assessed as compound-Fe3+ complex formation after 1 hr by LC/MS analysis.
In series [3] the test system is P388. Kind of series: Cytotoxicity against mouse P388 cells after 4 days by MTT assay. In kind it is functional, cell-based. The following applies: P388, 96 h.
Series [4] can be described thus: Stability of the compound in physiological conditions at pH > 7. The format is physicochemical.

Calls of active or inactive are those of the source. No cut-off for these calls is given here.

Regarding `C[C@@H]1ON(CCC[C@@H](NC(=O)[C@H]2N=C(c3ccccc3O)O[C@@H]2C)C(=O)O)C(=O)[C@H]1NC(=O)c1ccccc1O`, the outcome in series [1] and in series [2] was inactive.

In general, IC50 refers to the concentration at which inhibition is half-maximal. In the case of `C[C@H]1OC(c2ccccc2O)=N[C@@H]1C(=O)N[C@H](CCCN(O)C(=O)[C@H]1N=C(c2ccccc2O)O[C@@H]1C)C(=O)O`, the result in series [2] was Active. The half-inhibitory concentration (IC50) in series [3] stood at 22.4 µM. In series [4], the Stability result is given as “Unstable”.

(Values after ChEMBL document CHEMBL4196165, “Catenulobactins A and B, Heterocyclic Peptides from Culturing Catenuloplanes sp. with a Mycolic Acid-Containing Bacterium” (J Nat Prod, 2018).)
